From a melting point compilation (Tetko et al.; mined from patent text by program, amines drawn as free bases though some values may be those of a salt)

Compound | melting point
COCC(C)Nc1cc(-c2ccnc(Nc3cccc(Cl)c3)n2)ccn1 (configuration not stated) | 143 to 144 °C
Cc1ccc(C(C)Oc2cnn(C(C)(C)C)c(=O)c2Cl)cc1 (configuration not stated) | 104 to 106 °C
OCc1cn(-c2ccc(F)c(Cl)c2)cn1 | 130 to 135 °C
O=C(O)CCCOc1cc(Cn2cc(C3c4ccccc4C=Cc4ccccc43)c(=S)[nH]c2=O)cc(OCC(=O)O)c1 | 104 to 109 °C
COc1c(O)ccc2c1OCC2=O | 160 °C
Cc1c(-c2cccc(F)c2)sc2nc(N)[nH]c(=O)c12 | 310 to 330 °C
CCn1cc(C(=O)O)c(=O)c2cc(F)c(N3CCC(CNC)C3)cc21 (configuration not stated) | 247 to 250 °C
CN(C)CCOC(=O)C(=O)c1ccc(OCCOc2ccc3ccccc3c2)cc1 | 93 to 94 °C
Cc1cccc(-c2n[nH]cc2-c2ccc(F)c(-c3ccc(N4CCN(C)CC4)nc3)c2)n1 | 86 °C
O=S(Cc1cn(C23CC4CC(CC(C4)C2)C3)nn1)c1cc(Cl)ccc1Cl (configuration not stated) | 125 to 128 °C
CN(C)S(=O)(=O)N1CCN(S(=O)(=O)c2ccc(-c3ccc(CC#N)cc3)s2)[C@@H](C(=O)NO)C1 | 170 to 172 °C
C=CCSC(=NC(=O)OC)NC(=O)NC(C)C | 103 to 106 °C
CON=C(C(=O)OC)c1ccccc1Oc1ccccc1 | 109 to 110 °C
COc1cc(CCNC(=O)C(NC(=O)OC(C)(C)C)C(C)C)ccc1OCC#Cc1ccc(Cl)cc1 (configuration not stated) | 141 to 142 °C
CCCC(=NOCC)C1=C(O)CC(c2c(C)c(C)c(C)c3c2OCC3)CC1=O (configuration not stated) | 108 °C
O=c1[nH]c2ccccc2n1-c1cc(Cl)ccc1O | 248 to 250 °C
COc1cc2c(cc1Nc1ncc(Cl)c(Nc3ccccc3S(=O)(=O)N(C)C)n1)CCN(CC(C)(C)O)CC2 | 188 to 189 °C
O=C(C=Cc1cc(F)cc(F)c1)c1cnc2sc3c(n12)CCCCC3 | 207 to 209 °C
O=C(O)COc1ccccc1OCCC(c1ccccc1)(c1ccccc1)c1ccccc1 | 137 to 139 °C
CCOC(=O)c1cn2c3c(c(F)c(F)cc3c1=O)OCC2 | 265 to 266 °C
Nc1ccc(S(=O)(=O)N2CCCC(c3ccc(Cl)cc3)=N2)cc1 | 205 to 206 °C
COC(=O)/C=C/c1cnc2ccccc2c1 | 118 to 120 °C
CC(C)(C#N)CNC(=O)c1nn(C2CCCCO2)cc1NC(=O)c1ccccn1 (configuration not stated) | 138 to 140 °C
O=[N+]([O-])c1ccc(C2OCCO2)nc1 | 104 to 105 °C
COCCOc1ncc(Cl)c(N)c1Cl | 92 to 93.5 °C

Compound | melting point
COC(=O)CCc1cc2cc(Cl)ccc2n1S(=O)(=O)c1ccc(OC)cc1 | 98 to 99 °C
O=C(O)CCCCCc1nc2c(F)c(F)cc(F)c2s1 | 84 to 86 °C
Clc1ccc(OCc2ccnc3ncnn23)cc1 | 193 to 194 °C
CON=C(C(=O)OC)c1ccccc1COc1ccc2c(c1)OCC2=O | 134 to 137 °C
COc1ccccc1-n1c(-c2ccc(C=C(C#N)C#N)s2)ccc1-c1ccc(C(C#N)=C(C#N)C#N)s1 | > 300 °C
O=C1Cn2cccc2Sc2ccc(Cl)cc21 | 106 to 107 °C
O=C(NCC12CC3CC(CC(C3)C1)C2)c1cc(-c2cc(F)c(F)cc2C(=O)O)ccc1Cl | 121 to 125 °C
CS(=O)(=O)c1ccc(Cc2ccc(CCNS(=O)(=O)c3ccc(Cl)cc3)c(CCC(=O)O)c2)cc1 | 105 to 107 °C
CC(=O)NCCNCC(O)COc1ccc(CCOCC2CCC2)cc1 (configuration not stated) | 108 °C
Cc1sc2c(c1C(=O)c1ccc(N(C)C)cc1)CCC2C(=O)O (configuration not stated) | 171 to 173 °C
O=C1NC(=O)C(c2ccc(Oc3ccc(Cl)cc3)cc2)(N2CCN(CC(O)CO)CC2)C(=O)N1 (configuration not stated) | 257 to 258 °C
O=c1c2c(Cc3cccc(OC(F)(F)F)c3)n[nH]c2c2cccnc2n1-c1ccccc1 | 253 to 254 °C
CCOC(=O)c1cc2ccc3cc4ccccc4cc3c2n1C | 165 to 166 °C
O=C1NC(=O)c2c1c(-c1c(Cl)cccc1Cl)cc1c2c2cc(O)ccc2n1CCCBr | 273 to 276 °C
CCCOc1nn(Cc2ccc(OCc3nc(-c4ccccc4)oc3C)cc2)cc1CCC(=O)O | 108 to 109 °C
CCOC(=O)CCc1cccc(OCc2ccc(OCc3nc(-c4ccccc4)oc3C)cc2)c1 | 90 to 91 °C
C=CCC1(C(=O)N2CCCCC2)c2ccccc2-c2ccccc21 | 64 to 66 °C
CCCCCCCCCCCCc1ccsc1-c1ccc2c(c1)c(=O)c1cc3c(cc12)c(=O)c1cc(-c2sccc2CCCCCCCCCCCC)ccc13 | 152 to 153 °C
CCCCc1nc2c(N)nc3ccc(O)cc3c2n1CCCCNC(=O)N1CCOCC1 | 177 to 182 °C
O=C1N=C(N2CCCCCCC2)SC1=Cc1cccc(-c2ccc(O)c(C34CC5CC(CC(C5)C3)C4)c2)c1 | 284 to 286 °C
O=C(O)c1cn2c3c(c(N4CCNCC4)ccc3c1=O)CCC2 | 267 to 268 °C
CC1CC=NN1C(=O)c1cccnc1 (single isomer, unassigned; (-)) | 67 to 69 °C
COc1cc(OC)cc(C(=O)NC(NC(=NC#N)Nc2ccc(C(F)(F)F)nc2)C(C)(Cl)Cl)c1 (configuration not stated) | 187 to 189 °C
CCC(=O)NCCC1CN(C=O)c2ccc3c(c21)CCO3 (configuration not stated) | 139 to 141 °C
Cc1nc(-c2ccc(OC(F)(F)F)cc2)ccc1CO | 68 to 69 °C

Compound | melting point
CS(=O)(=O)Nc1ccc(OC2CCN(c3ccncc3)CC2)cc1 | 191 to 192 °C
O=Cc1cccc2c1[nH]c1c3cc(Br)ccc3oc21 | 280 to 281 °C
Cc1c(Cc2cccnc2)ccc2ccc(Br)cc12 | 101 to 104 °C
CCc1nc2c(C)cc(C)nc2n1Cc1ccc(-c2ccccc2)c(-c2nc(=O)o[nH]2)c1 | 149 to 152 °C
CCc1nc2c(C)cc(C)nc2n1Cc1ccc(-c2ccccc2-c2c(N(C)C)c(=O)c2=O)cc1 | 140 to 142 °C
OCC1OC(n2cnc3c(NCC(c4ccc(Cl)cc4)c4ccc(Cl)cc4)ncnc32)C(O)C1O (configuration not stated) | 95 to 120 °C
COc1ccc(Nc2ccnc(NCCO)c2)cc1 | 164 to 165 °C
COc1ccc(S(=O)(=O)Nc2nc(-c3cccc4ccccc34)cs2)cc1OC | 132 to 133 °C
CC(=O)Oc1ccc(C2=COc3ccccc3O2)cc1 | 123 to 125 °C
COc1ccccc1N1CCN(CCCCc2ccc(C3CCC(=O)N3)cc2)CC1 (configuration not stated) | 130 to 131 °C
C#CC1(c2ccc(OC(F)F)c(OCC3CC3)c2)CCC(=O)CC1 | 75 to 77 °C
Oc1nc2nc(SCc3ccccc3)nn2c(O)c1-c1c(F)cc(F)cc1F | 273 °C
COc1ccccc1Oc1c(Cl)nc(N2CCOCC2)nc1OCCOCc1ccccc1 | 133 to 134 °C
CC(=O)OCC(CCc1nc2nc(N)nc(SCCC(=O)c3ccccc3)c2[nH]1)COC(C)=O | 130 to 131 °C
Fc1cccc(F)c1-c1nn(-c2ccccc2C(F)(F)F)c(=S)o1 | 128 to 130 °C
C/C(=C\C(=O)O)c1cnn(C)c1-c1ccc(F)cc1 | 123 to 124 °C
CNC(=O)C(Cc1ccc(OC)cc1)NC(=O)C(CC(C)C)C(S)CC(=O)OC(C)(C)C (configuration not stated) | 133 to 137 °C
CNC(=O)c1cccc(C2C(C(=O)c3ccc(OC)cc3)=C(O)C(=O)N2c2nnc(C)s2)c1 (configuration not stated) | 238 °C
O=C(O)c1ccc(OCCCOCCCCCCBr)cc1 | 72 to 75 °C
COc1ccc(Cn2c(C(=O)O)c(-c3ccc4c(c3)OCO4)c3ccccc32)c(OCC(=O)O)c1 | 195 to 196 °C
CC(C)Oc1cc(-n2c(=O)cc(C(F)(F)F)[nH]c2=O)c(F)cc1Cl | 195 to 197 °C
Cn1nc(-c2ccccc2)cc1-c1ccccc1 | 52 to 53 °C
CCCc1c(OCCCSc2ccc(C(=O)NCC(=O)OCC)cc2)ccc(C(C)=O)c1O | 115 to 116 °C
c1ccc2c(c1)CC(CCN1CCN(c3cccc4[nH]ccc34)CC1)C2 | 146 to 147 °C
CCNc1nc(-c2ccc(NC(=O)NCc3ccc(N)nc3)cc2)ccc1C(=O)NC | 223 to 226 °C

Compound | melting point
O=C1c2ccccc2C(=O)N1OS(=O)(=O)c1ccccc1 | 186 °C
Clc1ncc(-c2ccnc(N3CCOCC3)n2)c2ccccc12 | 180 to 181 °C
CC1=NCN(c2ccc(Br)s2)O1 | 48 to 49 °C
C#CCC(NC(=O)c1ccccc1)C(C)=O (configuration not stated) | 101 to 103 °C
Cc1cccc(=O)c(NC(=O)C2=C(O)c3ccccc3S(=O)(=O)N2C)c1 | 235 to 242 °C
CN1CCC23CC(=O)CCC2C1Cc1ccccc13 (configuration not stated) | 164 to 166 °C
CCC(Cl)(CC)CC(=O)c1cc(C(C)(C)C)c(O)c(C(C)(C)C)c1 | 72 °C
O=C(c1cc2ccnc(Cl)c2[nH]1)N1CCCC1 | 152 to 154 °C
Cn1c2cc(O)c(O)cc2c2cc(O)c(O)cc21 | > 270 °C
CCCCCCCCCCCCNC(=O)c1cc(-c2cccc(OC)c2)c(OCC(=O)O)c(-c2cccc(OC)c2)c1 | 57 to 58 °C
COc1ccc(-c2ccc(C(=O)Nc3ccc4cc(CN5CCCC5)cnc4c3)cc2)cc1 | 202 to 204 °C
COc1ccc2nc3c(nc2c1)SC(C#N)=C(C#N)S3 | 154 to 156 °C
COc1ccc2cc([C@@H]3CCN(C[C@H](O)COc4cccc5[nH]ccc45)[C@@H](C)C3)sc2c1 | 179 to 182 °C
Cc1cc2n(c1)Cc1cc(Cl)ccc1N=C2N1CCN(CC(C)(C)C(=O)O)CC1 | 246 °C
NC(c1ccccc1)c1ccc(C(N)c2ccccc2)cc1 (configuration not stated) | 123 to 127 °C
CCCCC(CC(=O)O)c1cc(Cl)c(OC)cc1OC (configuration not stated) | 91 to 92 °C
CSc1ccccc1C1C(=O)c2ccccc2C1=O | 191 to 193 °C
CC[C@@H](c1ccccc1)N(Cc1cccc(C(=O)O)c1)S(=O)(=O)c1ccc(Cl)cc1 | 65 to 67 °C
C[C@@H](c1ccc(-c2ccc(C#N)cn2)cc1)N1CC[C@](CC(C)(C)O)(c2ccccc2)OC1=O | 160 to 162 °C
COc1cccc(C(=O)Nc2ccc3ccc(Cl)nc3n2)c1 | 178 °C
CCCC(=O)c1cccc(NC(=O)C=C(C)OC)c1 | 81 °C
COC1(c2cc(F)cc(S(=O)(=O)c3ccc(/C(C)=N/O)cc3)c2)CCOCC1 | 180 to 181 °C
